PubChem BioAssay (NCI)
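Grown in 96-well plates, cells were treated for 48 hours with each compound at five concentrations. Insufficient inhibition: endpoint recorded as highest concentration tested. TGI marks complete inhibition of growth.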

Columns and labels:
Assay in all cases: NCI tumour cell line growth inhibition, 48 h
HS 578T breast = system: HS 578T breast
KM12 colon = system: KM12 colon
OVCAR-8 ovarian = system: OVCAR-8 ovarian
M14 melanoma = system: M14 melanoma
DLD-1 colon = system: DLD-1 colon
EKVX NSCLC = system: EKVX NSCLC
HCT-116 colon = system: HCT-116 colon
NCI-H226 lung = system: NCI-H226 lung
TK-10 renal = system: TK-10 renal
SF-268 CNS = system: SF-268 CNS
NCI-H23 lung = system: NCI-H23 lung
SNB-19 CNS = system: SNB-19 CNS
MALME-3M melanoma = system: MALME-3M melanoma
SF-295 CNS = system: SF-295 CNS
KM20L2 colon = system: KM20L2 colon
IGROV1 ovarian = system: IGROV1 ovarian
A549 NSCLC = system: A549 NSCLC
HCC-2998 colon = system: HCC-2998 colon
SN12C renal = system: SN12C renal
LOX IMVI melanoma = system: LOX IMVI melanoma
NCI/ADR-RES ovarian = system: NCI/ADR-RES ovarian
ACHN renal = system: ACHN renal
XF 498 CNS = system: XF 498 CNS
UO-31 renal = system: UO-31 renal
SW-620 colon = system: SW-620 colon
MCF7 breast = system: MCF7 breast
DMS 114 small cell lung = system: DMS 114 small cell lung
MOLT-4 leukemia = system: MOLT-4 leukemia
DU-145 prostate = system: DU-145 prostate
SK-MEL-28 melanoma = system: SK-MEL-28 melanoma
U251 CNS = system: U251 CNS
DMS 273 small cell lung = system: DMS 273 small cell lung
MDA-MB-435 = system: MDA-MB-435
HOP-92 NSCLC = system: HOP-92 NSCLC
K-562 leukemia = system: K-562 leukemia
HOP-18 NSCLC = system: HOP-18 NSCLC
HOP-62 NSCLC = system: HOP-62 NSCLC
NCI-H460 lung = system: NCI-H460 lung
HL-60(TB) leukemia = system: HL-60(TB) leukemia
T-47D breast = system: T-47D breast
SR leukemia = system: SR leukemia
SK-OV-3 ovarian = system: SK-OV-3 ovarian
786-0 renal = system: 786-0 renal
OVCAR-4 ovarian = system: OVCAR-4 ovarian
MDA-MB-231 breast = system: MDA-MB-231 breast
PC-3 prostate = system: PC-3 prostate
CAKI-1 renal = system: CAKI-1 renal
HCT-15 colon = system: HCT-15 colon
COLO 205 colon = system: COLO 205 colon
M19-MEL melanoma = system: M19-MEL melanoma
SF-539 CNS = system: SF-539 CNS
OVCAR-5 ovarian = system: OVCAR-5 ovarian
NCI-H522 lung = system: NCI-H522 lung
RPMI-8226 leukemia = system: RPMI-8226 leukemia
CCRF-CEM leukemia = system: CCRF-CEM leukemia
OVCAR-3 ovarian = system: OVCAR-3 ovarian
UACC-62 melanoma = system: UACC-62 melanoma
SK-MEL-2 melanoma = system: SK-MEL-2 melanoma
LXFL 529 NSCLC = system: LXFL 529 NSCLC
SNB-75 CNS = system: SNB-75 CNS
SNB-78 CNS = system: SNB-78 CNS
SK-MEL-5 melanoma = system: SK-MEL-5 melanoma
HT29 colon = system: HT29 colon
A498 renal = system: A498 renal
RXF 393 renal = system: RXF 393 renal
UACC-257 melanoma = system: UACC-257 melanoma
RXF-631 renal = system: RXF-631 renal

COc1cc(/C=C/c2ccc(/C=C/c3cc(OC)c(OC)c(OC)c3)cc2)cc(OC)c1OC
TGI (HS 578T breast): 75.5 µM
TGI (KM12 colon): > 77.4 µM
TGI (OVCAR-8 ovarian): 56.1 µM
TGI (M14 melanoma): > 100 µM
TGI (DLD-1 colon): > 100 µM
TGI (EKVX NSCLC): > 69.1 µM
TGI (HCT-116 colon): > 100 µM
TGI (NCI-H226 lung): 49.7 µM
TGI (TK-10 renal): 39.5 µM
TGI (SF-268 CNS): 42.5 µM
TGI (NCI-H23 lung): 25.2 µM
TGI (SNB-19 CNS): 32.6 µM
TGI (MALME-3M melanoma): 60.1 µM
TGI (SF-295 CNS): 19.8 µM
TGI (KM20L2 colon): > 76.3 µM
TGI (IGROV1 ovarian): > 71.1 µM
TGI (A549 NSCLC): > 100 µM
TGI (HCC-2998 colon): > 61.1 µM
TGI (SN12C renal): > 100 µM
TGI (LOX IMVI melanoma): > 85.8 µM
TGI (NCI/ADR-RES ovarian): > 100 µM
TGI (ACHN renal): 44.5 µM
TGI (XF 498 CNS): 31.4 µM
TGI (UO-31 renal): > 84.6 µM
TGI (SW-620 colon): > 100 µM
TGI (MCF7 breast): > 100 µM
TGI (DMS 114 small cell lung): > 68.2 µM
TGI (MOLT-4 leukemia): > 100 µM
TGI (DU-145 prostate): > 100 µM
TGI (SK-MEL-28 melanoma): > 100 µM
TGI (U251 CNS): 29.5 µM
TGI (DMS 273 small cell lung): > 48.9 µM
TGI (MDA-MB-435): > 100 µM
TGI (HOP-92 NSCLC): 34.7 µM
TGI (K-562 leukemia): > 100 µM
TGI (HOP-18 NSCLC): > 100 µM
TGI (HOP-62 NSCLC): 31.3 µM
TGI (NCI-H460 lung): > 82 µM
TGI (HL-60(TB) leukemia): > 100 µM
TGI (T-47D breast): 24 µM
TGI (SR leukemia): > 100 µM
TGI (SK-OV-3 ovarian): 22.7 µM
TGI (786-0 renal): 20.7 µM
TGI (OVCAR-4 ovarian): 18.1 µM
TGI (MDA-MB-231 breast): 52.7 µM
TGI (PC-3 prostate): > 100 µM
TGI (CAKI-1 renal): 72.3 µM
TGI (HCT-15 colon): > 100 µM
TGI (COLO 205 colon): > 100 µM
TGI (M19-MEL melanoma): > 100 µM
TGI (SF-539 CNS): 17.8 µM
TGI (OVCAR-5 ovarian): > 100 µM
TGI (NCI-H522 lung): 27.2 µM
TGI (RPMI-8226 leukemia): > 100 µM
TGI (CCRF-CEM leukemia): > 100 µM
TGI (OVCAR-3 ovarian): 77.3 µM
TGI (UACC-62 melanoma): 25.1 µM
TGI (SK-MEL-2 melanoma): 53.9 µM
TGI (LXFL 529 NSCLC): 35.9 µM
TGI (SNB-75 CNS): 19.5 µM
TGI (SNB-78 CNS): 85 µM
TGI (SK-MEL-5 melanoma): > 100 µM
TGI (HT29 colon): > 61.7 µM
TGI (A498 renal): 26.1 µM
TGI (RXF 393 renal): 20.4 µM
TGI (UACC-257 melanoma): > 100 µM

S=C(N/N=C/c1ccccc1)NC12CC3CC(CC(C3)C1)C2
TGI (KM12 colon): > 100 µM
TGI (OVCAR-8 ovarian): > 100 µM
TGI (M14 melanoma): > 100 µM
TGI (EKVX NSCLC): > 100 µM
TGI (HCT-116 colon): > 100 µM
TGI (NCI-H226 lung): > 100 µM
TGI (TK-10 renal): > 100 µM
TGI (SF-268 CNS): > 100 µM
TGI (NCI-H23 lung): > 100 µM
TGI (SNB-19 CNS): > 100 µM
TGI (SF-295 CNS): > 100 µM
TGI (KM20L2 colon): 76.2 µM
TGI (IGROV1 ovarian): > 100 µM
TGI (A549 NSCLC): > 100 µM
TGI (SN12C renal): 48.8 µM
TGI (LOX IMVI melanoma): 45.1 µM
TGI (ACHN renal): > 100 µM
TGI (XF 498 CNS): > 100 µM
TGI (UO-31 renal): > 100 µM
TGI (SW-620 colon): > 100 µM
TGI (MOLT-4 leukemia): 74.2 µM
TGI (SK-MEL-28 melanoma): > 100 µM
TGI (U251 CNS): > 100 µM
TGI (RXF-631 renal): > 100 µM
TGI (DMS 273 small cell lung): 67.9 µM
TGI (HOP-92 NSCLC): 56.2 µM
TGI (K-562 leukemia): > 100 µM
TGI (HOP-62 NSCLC): > 100 µM
TGI (NCI-H460 lung): > 100 µM
TGI (HL-60(TB) leukemia): > 100 µM
TGI (SR leukemia): > 100 µM
TGI (SK-OV-3 ovarian): > 100 µM
TGI (786-0 renal): > 100 µM
TGI (OVCAR-4 ovarian): > 100 µM
TGI (CAKI-1 renal): > 100 µM
TGI (HCT-15 colon): > 100 µM
TGI (COLO 205 colon): 89.6 µM
TGI (SF-539 CNS): > 100 µM
TGI (OVCAR-5 ovarian): > 100 µM
TGI (NCI-H522 lung): > 100 µM
TGI (RPMI-8226 leukemia): 95.5 µM
TGI (CCRF-CEM leukemia): 92.4 µM
TGI (OVCAR-3 ovarian): 83.4 µM
TGI (UACC-62 melanoma): > 100 µM
TGI (SK-MEL-2 melanoma): > 100 µM
TGI (LXFL 529 NSCLC): > 100 µM
TGI (SK-MEL-5 melanoma): > 100 µM
TGI (HT29 colon): 26.5 µM
TGI (A498 renal): > 100 µM
TGI (RXF 393 renal): > 100 µM
TGI (UACC-257 melanoma): > 100 µM
